Test results as given in patent US10029986B2, “Alkynyl pyridine-substituted amide compound and pesticide” (NISSAN CHEMICAL INDUSTRIES, LTD., priority 2014, dated 2018).

Legend:
[1] = tested on: Colletotrichum lagenarium (Synonym: Colletotrichum orbiculare); assay: Test on the preventive effect against cucumber anthracnose; type: in vivo; conditions: 168 h, test solution A 500 ppm, 5 ml per pot sprayed, 2 days inoculation chamber then 7 days at 23° C.
Protocol: Compounds of the present invention were dissolved in a solvent for emulsion (a mixture of Sorpol (registered trademark) 3005XL (manufactured by Toho Chemical Industry Co., Ltd.): N-methylpyrrolidone: Solvesso (registered trademark) 200 (manufactured by ExxonMobil Chemical) in a ratio of 1:5:2) to prepare 20 wt % emulsifiable concentrates. Then, distilled water was added to dilute the emulsifiable concentrates to the prescribed concentration (500 ppm), and the obtained solutions were used in the following the Test Examples 1 to 8. Cucumber (varieties: Sagami Hanjiro) was seeded in 90 cm^3 plastic pot, and at the cotyledon stage, 5 ml per pot of test solution A of the compounds of the present invention was sprayed. One day later, a suspension of conidium of Colletotrichum lagenarium (Synonym: Colletotrichum orbiculare) was sprayed, and the pot was left for 2 days in the inoculation chamber at 25° C. under humidity of 100% RH. Thereafter, the pot was placed in an air-conditioned greenhouse (23° C.) and left at the same temperature for 7 days. Thereafter, the proportion of the formed lesion in the inoculated leaves were measured to calculate the control value in accordance with the same formula as in Test Example 1. The test was carried out in duplicate.

[2] = tested on: Southern root-knot nematode (Meloidogyne incoqnita); assay: Insecticidal test against Southern root-knot nematode (eggs, 96 well plate); type: in vivo; conditions: 96 h, test solution B 100 ppm, 10 μl per well, 25° C. dark, 4 days after treatment, read-out: efficacy (unhatched eggs + inactive larvae relative to non-treated)
Protocol: Compounds of the present invention were dissolved in dimethyl sulfoxide to prepare 1 wt % solutions. Then, distilled water was added to dilute the solutions to the prescribed concentration (100 ppm), and the obtained solutions were used in the following the Test Examples 9 to 12. 60 μl of a potato dextrose 1% agar medium was added to each well of a 96 well plate, and 30 μl of sterilized water containing eggs of Southern root-knot nematode (Meloidogyne incoqnita) (10 eggs/3 μl) was added to each well. Further, 10 μl per well of test solution B of the compounds of the present invention was added, and the plate was left at rest at 25° C. under dark conditions.

[3] = tested on: Erysiphe polygoni (synonym: Erysiphe betae); assay: Test on the preventive effect against cucumber powdery mildew; type: in vivo; conditions: 216 h, test solution A 500 ppm, 5 ml per pot sprayed, cucumber cotyledon stage, 9 days after inoculation
Method in brief: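 Cucumber (Sagami Hanjiro) at cotyledon stage sprayed with 500 ppm compound (diluted from 20 wt% emulsifiable concentrate), air-dried, then inoculated with Erysiphe polygoni conidia. Kept 9 days at 20 °C in greenhouse; lesion area ratio scored in duplicate, control value = [1−(treated/untreated lesion ratio)]×100.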

[4] = tested on: Phaeosphaeria nodorum (Synonym: Septoria nodorum); assay: Test on the preventive effect against wheat glume blotch; type: in vivo; conditions: Parastagonospora nodorum, 144 h; test solution A 500 ppm, 5 ml per pot, wheat 1.3-leaf stage, 2 days inoculation chamber then 6 days at 20° C.
Method in brief: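 Wheat (cv. Haruyutaka) at 1.3-leaf stage sprayed with compound at 500 ppm as diluted emulsifiable concentrate, then inoculated one day later with conidial suspension. Kept 2 days at 20° C and 100% RH, then 6 days in a greenhouse at 20° C. Control value derived from lesion proportion on inoculated leaves; duplicate.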

Puccinia recondita = assay: Test on the preventive effect against wheat leaf rust; type: in vivo; conditions: 216 h, test solution A 500 ppm, 5 ml per pot, wheat 1.3-leaf stage, 1 day inoculation chamber then 8 days at 20° C.
Protocol: Compounds of the present invention were dissolved in a solvent for emulsion (a mixture of Sorpol (registered trademark) 3005XL (manufactured by Toho Chemical Industry Co., Ltd.): N-methylpyrrolidone: Solvesso (registered trademark) 200 (manufactured by ExxonMobil Chemical) in a ratio of 1:5:2) to prepare 20 wt % emulsifiable concentrates. Then, distilled water was added to dilute the emulsifiable concentrates to the prescribed concentration (500 ppm), and the obtained solutions were used in the following the Test Examples 1 to 8. Wheat (varieties: Norin 61) was seeded in 90 cm^3 plastic pot, and at 1.3-leaf stage, 5 ml per pot of test solution A of the compounds of the present invention was applied. One day after treatment, a suspension of spores of Puccinia recondita was sprayed to the wheat, and the pot was left in the inoculation chamber at 20° C. under humidity of 100% RH for 1 day. Thereafter, the pot was placed in an air-conditioned greenhouse (20° C.) for 8 days. The proportion of the formed lesion in the inoculated leaves were counted to calculate the control value in accordance with the same formula as in the Test Example 1. The test was carried out in duplicate.

Structure (SMILES)	melting point [°C]	pest or weed control at 500 µg/mL [1] [%]	pest or weed control at 100 µg/mL [2] [%]	pest or weed control at 500 µg/mL [3] [%]	pest or weed control at 500 µg/mL [4] [%]	pest or weed control at 500 µg/mL (Puccinia recondita) [%]
CC#Cc1cnc(CCNC(=O)c2ccccc2C(F)(F)F)c(Cl)c1 [1-001, N-[2-[3-chloro-5-(1-propynyl)pyridin-2-yl]ethyl]-2-(trifluoromethyl)benzamide]	100 to 103	≥ 70	≥ 50	≥ 70	≥ 70	–
O=C(NCCc1ncc(C#CC2CC2)cc1Cl)c1ccccc1C(F)(F)F [1-002]	105 to 108	≥ 70	≥ 50	≥ 70	≥ 70	–
O=C(NCC(F)(F)c1ncc(C#CC2CC2)cc1Cl)c1ccccc1C(F)(F)F [1-005]	137 to 139	≥ 70	≥ 50	≥ 70	≥ 70	–
CC(C)(C)C#Cc1cnc(CCNC(=O)c2cccnc2C(F)F)c(Cl)c1 [3-002]	144 to 146	≥ 70	≥ 50	≥ 70	≥ 70	≥ 70
O=C(NCC(F)(F)c1ncc(C#CC2CC2)cc1Cl)c1cccnc1C(F)F [3-003, N-[2-[3-chloro-5-(cyclopropylethynyl)pyridin-2-yl]-2,2-difluoroethyl]-2-(difluoromethyl)nicotinamide]	116 to 118	≥ 70	≥ 50	≥ 70	≥ 70	≥ 70
CC(CNC(=O)c1cccnc1C(F)F)c1ncc(C#CC2CC2)cc1Cl (stereo not shown) [3-006]	–	≥ 70	≥ 50	≥ 70	≥ 70	–
O=C(NCC(c1ncc(C#CC2CC2)cc1Cl)C1CC1)c1cccnc1C(F)F (stereo not shown) [3-008]	–	≥ 70	≥ 50	≥ 70	≥ 70	≥ 70
CSC(CNC(=O)c1cccnc1C(F)F)c1ncc(C#CC2CC2)cc1Cl (stereo not shown) [3-020]	–	≥ 70	≥ 50	≥ 70	≥ 70	≥ 70
Cn1cc(C(=O)NCC(c2ncc(C#CC3CC3)cc2Cl)C2CC2)c(C(F)F)n1 (stereo not shown) [8-009]	–	≥ 70	–	≥ 70	≥ 70	≥ 70
CSC(CNC(=O)c1cn(C)nc1C(F)F)c1ncc(C#CC2CC2)cc1Cl (stereo not shown) [8-020, N-[2-[3-chloro-5-(cyclopropylethynyl)pyridin-2-yl]-2-(methylthio)ethyl]-3-difluoromethyl-1-methyl-1H-pyrazole-4-carboxamide]	–	≥ 70	–	≥ 70	–	–
CC(Cc1ncc(C#Cc2ccccc2)cc1Cl)NC(=O)c1cn(C)nc1C(F)F (stereo not shown) [8-027]	–	≥ 70	–	≥ 70	≥ 70	≥ 70
Cc1nc(C(F)F)c(C(=O)NCC(C)c2ncc(C#CC3CC3)cc2Cl)s1 (stereo not shown) [9-002]	–	≥ 70	–	≥ 70	≥ 70	–

Further lines, with some results ahead:

melting point [°C]	Structure (SMILES)	pest or weed control at 500 µg/mL [1] [%]	pest or weed control at 100 µg/mL [2] [%]	pest or weed control at 500 µg/mL [3] [%]	pest or weed control at 500 µg/mL [4] [%]	pest or weed control at 500 µg/mL (Puccinia recondita) [%]
100 to 101	Cn1cc(C(=O)NCC(F)(F)c2ncc(C#CC3CC3)cc2Cl)c(C(F)F)n1 [8-003]	≥ 70	≥ 50	≥ 70	≥ 70	–
127 to 130	CC(Cc1ncc(C#CC2CC2)cc1Cl)NC(=O)c1cn(C)nc1C(F)F (stereo not shown) [8-024, N-[2-[3-chloro-5-(cyclopropylethynyl)pyridin-2-yl]-1-methylethyl]-3-difluoromethyl-1-methyl-1H-pyrazole-4-carboxamide]	≥ 70	–	≥ 70	≥ 70	≥ 70
